For 28 compounds, minimal effective concentration and melting point results are on record in patent US6756382B2, “Amide substituted imidazoquinolines” (3M Innovative Properties Company, priority 1999, dated 2004).

Structures can show the parent of a compound that is named as a salt.

The subject of one data set is interferon (α). In words: Cytokine induction in human cells: interferon secreted by PBMCs, ELISA. It is filed as cell-based. The settings on record: PBMC, incubated 18 to 24 hours, interferon determined by ELISA, read-out: Lowest Effective Concentration (μM) Interferon. The source says: (§1) An in vitro human blood cell system was used to assess cytokine induction by compounds of the invention. Activity is based on the measurement of interferon and tumor necrosis factor (α) (IFN and TNF, respectively) secreted into culture media as described by Testerman et. al. In “Cytokine Induction by the Immunomodulators Imiquimod and S-27609”, Journal of Leukocyte Biology, 58, 365-372 (September, 1995).
(§2) Whole blood is collected by venipuncture into EDTA vacutainer tubes from healthy human donors. Peripheral blood mononuclear cells (PBMCs) are separated from whole blood by density gradient centrifugation using Histopaque®-1077 (Sigma Chemicals, St. Louis, Mo.). The PBMCs are suspended at 3-4×10^6 cells/mL in RPMI 1640 medium containing 10% fetal bovine serum, 2 mM L-glutamine and 1% penicillin/streptomycin solution (RPMI complete). The PBMC suspension is added to 48 well flat bottom sterile tissue culture plates (Costar, Cambridge, Mass. or Becton Dickinson Labware, Lincoln Park, N.J.) containing an equal volume of RPMI complete media containing test compound.
(§3) The compounds are solubilized in dimethyl sulfoxide (DMSO). The DMSO concentration should not exceed a final concentration of 1% for addition to the culture wells.
(§4) The solution of test compound is added at 60 μM to the first well containing RPMI complete and serial (three fold or ten fold) dilutions are made. The PBMC suspension is then added to the wells in an equal volume, bringing the test compound concentrations to the desired range. The final concentration of PBMC suspension is 1.5-2×10^6 cells/mL. The plates are covered with sterile plastic lids, mixed gently and then incubated for 18 to 24 hours at 37° C. in a 5% carbon dioxide atmosphere.
(§5) Following incubation the plates are centrifuged for 5-10 minutes at 1000 rpm (˜200×g) at 4° C. The cell culture supernatant is removed with a sterile polypropylene pipet and transferred to sterile polypropylene tubes. Samples are maintained at −30 to −70° C. until analysis. The samples are analyzed for interferon (α) by either ELISA or bioassay and for tumor necrosis factor (α) by ELISA.
Interferon (α) concentration is determined by ELISA using a Human Multi-Species kit from PBL Biomedical Laboratories, New Brunswick, N.J.
(§6) The table below lists the lowest concentration found to induce interferon and the lowest concentration found to induce tumor necrosis factor for each compound. […] Unless otherwise indicated, the interferon biosynthesis was determined by ELISA.
On the technique in general: An ELISA detects its analyte on a solid surface through an enzyme-linked reagent.
Consider `COCCc1nc2c(N)nc3ccccc3c2n1CCCCNC(=O)[C@H]1CC(=O)N(C)[C@@H]1c1cccnc1` [Example 184, (2S,3S)-N-{4-[4-amino-2-(2-methoxyethyl)-1H-imidazo[4,5-c]quinolin-1-yl]butyl}-1-methyl-5-oxo-2-pyridin-3-ylpyrrolidine-3-carboxamide], for which the minimal effective concentration stood at 0.12 µM. Take `CCCCc1nc2c(N)nc3ccccc3c2n1CCCNC(=O)c1cc2ccccc2cn1` [Example 188, N-[3-(4-amino-2-butyl-1H-imidazo[4,5-c]quinolin-1-yl)propyl]isoquinoline-3-carboxamide]: the minimal effective concentration was determined as 0.37 µM.

Regarding `Nc1nc2ccccc2c2c1ncn2CCCCCCCCNC(=O)c1ccccc1` [Example 191, N-[8-(4-amino-1H-imidazo[4,5-c]quinolin-1-yl)octyl]benzamide], the minimal effective concentration is over 30 µM.

Tested on in a further data set: not given
Assay: not given
Settings: not given
In general, melting point refers to the temperature of the solid-liquid transition. Turning to `Nc1nc2ccccc2c2c1ncn2CCCCCNC(=O)c1ccccc1` (as salt: hydrochloride) [Example 10, N^1-[5-(4-Amino-1H-imidazo[4,5-c]quinolin-1-yl)pentyl]benzamide Hydrochloride], the melting point lay in the range of 217 to 219 °C.

Take `Nc1nc2ccccc2c2c1ncn2CCCNC(=O)c1ccccc1` (as salt: hydrochloride) [Example 11, N^1-[3-(4-Amino-1H-imidazo[4,5-c]quinolin-1-yl)propyl]benzamide Hydrochloride]: the melting point was in the range of 265 to 270 °C.

The compound `CCOCc1nc2c(N)nc3ccccc3c2n1CCNC(=O)CCCCC1SCC2NC(=O)NC21` (stereo not shown) (as salt: trifluoroacetate) [Example 29, N^1-[2-(4-Amino-2-(ethoxymethyl)-1H-imidazo[4,5-c]quinolin-1-yl)ethyl]-5-(2-oxoperhydrothieno[3,4-d]imidazol-4-yl)pentanamide Ditrifluoroacetate] yielded a melting point of 171 to 175 °C. Same read-out and setting: the result for `Cl.Nc1nc2ccccc2c2c1ncn2CCCCNC(=O)c1ccccc1.O` (hydrate or solvate) reads 254 to 256 °C. In the case of `Nc1nc2ccccc2c2c1ncn2CCCCNC(=O)c1cn(Cc2ccccc2)c2ccccc12` [Example 42, N^3-[4-(4-Amino-1H-imidazo[4,5-c]quinolin-1-yl)butyl]-1-benzyl-1H-3-indolecarboxamide], the melting point is 139 °C (dec.).

For `Nc1nc2ccccc2c2c1ncn2CCCCNC(=O)c1cccnc1` [Example 47, N^3-[4-(4-Amino-1H-imidazo[4,5-c]quinolin-1-yl)butyl]nicotinamide], the melting point lay in the range of 188.6 to 189.5 °C. Turning to `Nc1nc2ccccc2c2c1ncn2CCCCNC(=O)c1ccncc1` [Example 48, N^4-[4-(4-Amino-1H-imidazo[4,5-c]quinolin-1-yl)butyl]isonicotinamide], the melting point is 213 to 213.7 °C. Same read-out and setting: for `Nc1nc2ccccc2c2c1ncn2CCCCNC(=O)c1ccnc2ccccc12` [Example 49, N^4-[4-(4-Amino-1H-imidazo[4,5-c]quinolin-1-yl)butyl]-4-quinolinecarboxamide] the value was 214.5 to 215.2 °C; for `COCCc1nc2c(N)nc3ccccc3c2n1CCCCNC(=O)c1cc(-c2ccccc2)nc2ccccc12` [Example 50, N^4-[4-(4-Amino-2-(2-methoxyethyl)-1H-imidazo[4,5-c]quinolin-1-yl)butyl]-2-phenyl-4-quinolinecarboxamide], 118 °C (dec.). The compound `CCCCCSc1ncccc1C(=O)NCCCCn1cnc2c(N)nc3ccccc3c21` [Example 51, N^3-[4-(4-Amino-1H-imidazo[4,5-c]quinolin-1-yl)butyl]-2-(pentylsulfanyl)nicotinamide] returned a melting point of 158 to 161 °C. On the same count and under the same terms, the result for `N#Cc1ccc(C(=O)NCCCCn2cnc3c(N)nc4ccccc4c32)cn1` [Example 52, N^3-[4-(4-Amino-1H-imidazo[4,5-c]quinolin-1-yl)butyl]-6-cyanonicotinamide] reads 125 to 129 °C. On the same count and under the same terms, the result for `Nc1nc2ccccc2c2c1ncn2CCCCNC(=O)c1ccc(Cl)nc1` [Example 53, N^3-[4-(4-Amino-1H-imidazo[4,5-c]quinolin-1-yl)butyl]-6-chloronicotinamide] reads 144 to 148 °C (dec.); that for `Nc1nc2ccccc2c2c1ncn2CCCCNC(=O)c1ccc(OCC(F)(F)F)nc1` [Example 54, N^3-[4-(4-Amino-1H-imidazo[4,5-c]quinolin-1-yl)butyl]-6-(2,2,2-trifluoroethoxy)nicotinamide], 192 to 194 °C (dec.); that for `COCCc1nc2c(N)nc3ccccc3c2n1CCCCNC(=O)c1ccc2ccccc2n1` [Example 55, N^2-{4-[4-Amino-2-(2-methoxyethyl)-1H-imidazo[4,5-c]quinolin-1-yl]butyl}-2-quinolinecarboxamide], 78.1 to 79.9 °C. Same read-out and setting: for `CC(C(=O)NCCCCn1cnc2c(N)nc3ccccc3c21)c1ccc(-c2ccccc2)c(F)c1` (stereo not shown) [Example 56, N^1-[4-(4-Amino-1H-imidazo[4,5-c]quinolin-1-yl)butyl]-2-(2-fluoro-4-biphenylyl)propanamide] the value was 76.1 to 79.9 °C. The compound `COCCc1nc2c(N)nc3ccccc3c2n1CCCCNC(=O)c1nccc2ccccc12` [Example 57, N^1-{4-[4-Amino-2-(2-methoxyethyl)-1H-imidazo[4,5-c]quinolin-1-yl]butyl}-1-isoquinolinecarboxamide] showed a melting point of 61 to 63 °C.

Compound `CCCCc1ccc(C(=O)NCCCCn2c(CCOC)nc3c(N)nc4ccccc4c32)nc1` [Example 58, N^2-{4-[4-Amino-2-(2-methoxyethyl)-1H-imidazo[4,5-c]quinolin-1-yl]butyl}-5-butyl-2-pyridinecarboxamide] came in with a melting point of 54.9 to 55.2 °C. The compound `COCCc1nc2c(N)nc3ccccc3c2n1CCCCNC(=O)c1c[nH]c2ccccc12` [Example 59, N^3-{4-[4-Amino-2-(2-methoxyethyl)-1H-imidazo[4,5-c]quinolin-1-yl]butyl}-3-indolecarboxamide] yielded a melting point of 225.5 to 227.4 °C. The same measure, in the same setting: for `COCCc1nc2c(N)nc3ccccc3c2n1CCCCNC(=O)c1ccc(-n2cccc2)cc1` [Example 60, N^1-{4-[4-Amino-2-(2-methoxyethyl)-1H-imidazo[4,5-c]quinolin-1-yl]butyl}-4-(1-pyrrolyl)benzamide] the value was 173 to 174.9 °C.

`COc1ccc(Cc2nc3c(N)nc4ccccc4c3n2CCCCNC(=O)c2ccc3ccccc3n2)cc1` [Example 61, N^2-{4-[4-Amino-2-(4-methoxybenzyl)-1H-imidazo [4,5-c]quinolin-1-yl]butyl}-2-quinolinecarboxamide] displayed a melting point of 95.1 to 97.4 °C. With `Nc1nc2ccccc2c2c1ncn2CCCCNC(=O)c1ccc(Oc2ccccc2)cc1` [Example 64, N^1-[4-(4-Amino-1H-imidazo[4,5-c]quinolin-1-yl)butyl]-4-phenoxybenzamide], the melting point was in the range of 90.5 to 91.5 °C. `COCCc1nc2c(N)nc3ccccc3c2n1CCCCNC(=O)c1cncc(C#Cc2ccccc2)c1` [Example 65, N^5-{4-[4-Amino-2-(2-methoxyethyl)-1H-imidazo[4,5-c]quinolin-1-yl]butyl}-5-(2-phenyl-1-ethynyl)nicotinamide] gave a melting point of 76 to 78 °C. Consider `Nc1nc2ccccc2c2c1nc(-c1ccccc1)n2CCCCNC(=O)c1cccnc1` [Example 66, N^3-[4-(4-Amino-2-phenyl-1H-imidazo[4,5-c]quinolin-1-yl)butyl]nicotinamide], for which the melting point lay within 84.5 to 86.1 °C. `Nc1nc2ccccc2c2c1nc(-c1ccccc1)n2CCCCNC(=O)c1ccc2ccccc2n1` [Example 67, N^2-[4-(4-Amino-2-phenyl-1H-imidazo[4,5-c]quinolin-1-yl)butyl]-2-quinolinecarboxamide] came in with a melting point of 81.1 to 83.9 °C.

`Nc1nc2ccccc2c2c1nc(CCCOc1ccccc1)n2CCCNC(=O)c1ccc(Br)cc1` [Example 193, N-{3-[4-amino-2-(3-phenoxypropyl)-1H-imidazo[4,5-c]quinolin-1-yl]propyl}-4-bromobenzamide] displayed a melting point of 186.2 to 186.7 °C.

In the next data set the test system is tumor necrosis factor (α). Description: Cytokine induction in human cells: tumor necrosis factor (α) secreted by PBMCs, ELISA. It is filed as cell-based. The settings on record: PBMC, incubated 18 to 24 hours, TNF determined by ELISA, read-out: Lowest Effective Concentration (μM) Tumor Necrosis Factor.
Text: as §1, §2, §3, §4, §5
Tumor necrosis factor (α) (TNF)concentration is determined using ELISA kits available from Genzyme, Cambridge, Mass.; R&D Systems, Minneapolis, Minn.; or Pharmingen, San Diego, Calif.
as §6
`COCCc1nc2c(N)nc3ccccc3c2n1CCCCNC(=O)[C@H]1CC(=O)N(C)[C@@H]1c1cccnc1` [Example 184, (2S,3S)-N-{4-[4-amino-2-(2-methoxyethyl)-1H-imidazo[4,5-c]quinolin-1-yl]butyl}-1-methyl-5-oxo-2-pyridin-3-ylpyrrolidine-3-carboxamide]: the minimal effective concentration came out at 1.11 µM. On the same count and under the same terms, the result for `CCCCc1nc2c(N)nc3ccccc3c2n1CCCNC(=O)c1cc2ccccc2cn1` [Example 188, N-[3-(4-amino-2-butyl-1H-imidazo[4,5-c]quinolin-1-yl)propyl]isoquinoline-3-carboxamide] reads 1.11 µM; that for `Nc1nc2ccccc2c2c1ncn2CCCCCCCCNC(=O)c1ccccc1` [Example 191, N-[8-(4-amino-1H-imidazo[4,5-c]quinolin-1-yl)octyl]benzamide], over 30 µM.
